Source: US8058475B2, “Substituted cyclohexylmethyl compounds” (Gruenenthal GmbH, priority 2005, dated 2011)
Where two headings read alike, the source gives them in different places.

Target: human μ-opiate receptor (Homo sapiens, UniProt P35372)
Test: Affinity for the human μ-opiate receptor ([3H]-naloxone displacement, SPA, CHO-K1 membrane preparation)
Format: binding
Details: for inhibition at 1 µM: read-out: μ-Opioid receptor, % inhibition [1 μM]; for Ki: read-out: μ-Opioid receptor, Ki
[1] = 1 μM test substance, inhibition of specific [3H]-naloxone binding

human μ-opiate receptor, sequence (P35372 whole entry): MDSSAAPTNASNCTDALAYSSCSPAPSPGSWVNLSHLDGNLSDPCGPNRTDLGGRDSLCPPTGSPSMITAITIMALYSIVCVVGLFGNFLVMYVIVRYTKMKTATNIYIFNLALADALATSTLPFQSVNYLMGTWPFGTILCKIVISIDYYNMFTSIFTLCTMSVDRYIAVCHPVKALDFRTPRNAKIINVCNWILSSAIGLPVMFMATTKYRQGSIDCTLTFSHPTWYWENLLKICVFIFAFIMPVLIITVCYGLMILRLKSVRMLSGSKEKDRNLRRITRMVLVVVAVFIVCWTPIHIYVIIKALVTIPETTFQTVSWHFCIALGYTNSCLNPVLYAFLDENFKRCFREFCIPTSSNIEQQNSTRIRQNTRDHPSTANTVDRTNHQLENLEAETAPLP

Compound: CN(C)C(c1ccc(Cl)cc1)C1CCC(CNC(=O)c2csc3ccccc23)CC1 (single isomer, unassigned) [compound 336, benzo[b]thiophene-3-carboxylic acid {4-[(4-chloro-phenyl)-dimethylamino-methyl]-cyclohexylmethyl}-amide]
- inhibition at 1 µM: 92%
- Ki: 39 nM

Compound: CN(C)C(c1cccc(F)c1)C1CCC(CCNC(=O)c2cc(F)c(Cl)cc2Cl)CC1 (single isomer, unassigned) [compound 439, 2,4-dichloro-N-(2-{4-[dimethylamino-(3-fluoro-phenyl)-methyl]-cyclohexyl}-ethyl)-5-fluoro-benzamide]
- μ-Opioid receptor, % inhibition [1 μM] (1 µM): 85%
- Ki: 52 nM

Compound: CN(C)C(c1cccc(F)c1)C1CCC(CNC(=O)Cc2ccccc2)CC1 (single isomer, unassigned) [compound 319, N-{4-[dimethylamino-(3-fluoro-phenyl)-methyl]-cyclohexylmethyl}-2-phenyl-acetamide]
- inhibition at 1 µM: 95%
- Ki: 15 nM

Compound: CN(C)C(c1cccc(F)c1)C1CCC(CNC(=O)c2cccs2)CC1 (single isomer, unassigned) [compound 334, thiophene-2-carboxylic acid {4-[dimethylamino-(3-fluoro-phenyl)-methyl]-cyclohexylmethyl}-amide]
- inhibition at 1 µM: 92%
- Ki: 62 nM

Compound: CC(=O)N(Cc1ccc(F)cc1)C1CCC(C(c2ccccc2)N(C)C)CC1 (stereo not drawn) [compound 179, N-(4-((dimethylamino)(phenyl)methyl)cyclohexyl)-N-(4-fluorobenzyl)acetamide]
- inhibition at 1 µM: 99%
- Ki: 3 nM

Compound: CN(C)C(c1cccs1)C1CCC(NC(=O)c2cc(Cl)cc(Cl)c2)CC1 (stereo not drawn) [compound 194, 3,5-dichloro-N-[4-(dimethylamino-thiophen-2-yl-methyl)-cyclohexyl]-benzamide]
- inhibition at 1 µM: 96%
- Ki: 5.3 nM

Compound: Cc1cc(C2(O)CCC(C(c3ccc(Cl)cc3)N(C)C)CC2)ccc1F (stereo not drawn) [compound 160, 4-[(4-chloro-phenyl)-dimethylamino-methyl]-1-(4-fluoro-3-methyl-phenyl)-cyclohexanol]
- inhibition at 1 µM [1]: 67%

Compound: CN(C)C(c1ccc(F)cc1)C1CCC(CCNC(=O)c2cccc(Br)c2)CC1 (stereo not drawn) [compound 459, 3-bromo-N-(2-{4-[dimethylamino-(4-fluoro-phenyl)-methyl]-cyclohexyl}-ethyl)-benzamide]
- inhibition at 1 µM: 90%
- Ki: 31 nM

Compound: CCn1nc(C)c(Br)c1C(=O)NC1CCC(C(c2ccccc2)N(C)C)CC1 (stereo not drawn) [compound 268, 4-bromo-2-ethyl-5-methyl-2H-pyrazole-3-carboxylic acid [4-(dimethylamino-phenyl-methyl)-cyclohexyl]-amide]
- inhibition at 1 µM: 76%
- Ki: 86 nM

Compound: CN(C)C(c1ccccc1)C1CCC(NC(=O)C23CC4CC(CC(C4)C2)C3)CC1 (stereo not drawn) [compound 236, adamantane-1-carboxylic acid [4-(dimethylamino-phenyl-methyl)-cyclohexyl]-amide]
- inhibition at 1 µM: 83%
- Ki: 63 nM

Compound: 4-((dimethylamino)(phenyl)methyl)-1-(4-fluoro-3-methylphenyl)cyclohexanol [compound 150]
- μ-Opioid receptor, % inhibition [1 μM] [1]: 74%

Compound: CN(C)C(c1ccccc1)C1CCC(NC(=O)C2(c3ccc(Cl)cc3)CCCC2)CC1 (stereo not drawn) [compound 184, 1-(4-chloro-phenyl)-cyclopentanecarboxylic acid [4-(dimethylamino-phenyl-methyl)-cyclohexyl]-amide]
- inhibition at 1 µM: 101%
- Ki: 5.2 nM

Compound: CN(C)C(c1ccc(Cl)cc1)C1CCC(CCNC(=O)c2ccc(F)cc2F)CC1 (stereo not drawn) [compound 436, N-(2-{4-[(4-chloro-phenyl)-dimethylamino-methyl]-cyclohexyl}-ethyl)-2,4-difluoro-benzamide]
- inhibition at 1 µM: 91%
- Ki: 29 nM

Compound: COc1cccc(CC(=O)NCCC2CCC(C(c3cccs3)N(C)C)CC2)c1 (stereo not drawn) [compound 454, N-{2-[4-(dimethylamino-thiophen-2-yl-methyl)-cyclohexyl]-ethyl}-2-(3-methoxy-phenyl)-acetamide]
- inhibition at 1 µM: 87%
- Ki: 51 nM

Compound: CN(C)C(c1cccc(F)c1)C1CCC(CNC(=O)Cc2ccccc2)CC1 (single isomer, unassigned) [compound 348, N-{4-[dimethylamino-(3-fluoro-phenyl)-methyl]-cyclohexylmethyl}-2-phenyl-acetamide]
- μ-Opioid receptor, % inhibition [1 μM] (1 µM): 89%
- Ki: 30 nM

Compound: CCSc1ncccc1C(=O)NCC1CCC(C(c2ccc(Cl)cc2)N(C)C)CC1 (stereo not drawn) [compound 351, N-{4-[(4-chloro-phenyl)-dimethylamino-methyl]-cyclohexylmethyl}-2-ethyl-sulfanyl-nicotinamide]
- μ-Opioid receptor, % inhibition [1 μM]: 89%
- Ki: 58 nM

Compound: CCCC(=O)N(CCc1c[nH]c2ccccc12)C1CCC(C(c2ccccc2)N(C)C)CC1 (stereo not drawn) [compound 181, N-(2-(1H-indol-3-yl)ethyl)-N-(4-((dimethylamino)(phenyl)methyl)-cyclohexyl)butyramide]
- inhibition at 1 µM: 95%
- Ki: 3.9 nM

Compound: CN(C)C(c1ccccc1)C1CCC(NC(=O)c2cc(F)ccc2C(F)(F)F)CC1 (stereo not drawn) [compound 281, N-[4-(dimethylamino-phenyl-methyl)-cyclohexyl]-5-fluoro-2-trifluoromethyl-benzamide]
- inhibition at 1 µM: 73%
- Ki: 46 nM

Compound: CN(C)C(c1ccccc1)C1CCC(CCNC(=O)c2c(F)cccc2F)CC1 (stereo not drawn) [compound 461, N-{2-[4-(dimethylamino-phenyl-methyl)-cyclohexyl]-ethyl}-2,6-difluoro-benzamide]
- inhibition at 1 µM: 100%
- Ki: 17 nM

Compound: CSc1ncccc1C(=O)NCC1CCC(C(c2ccc(Cl)cc2)N(C)C)CC1 (stereo not drawn) [compound 315, N-{4-[(4-chloro-phenyl)-dimethylamino-methyl]-cyclohexylmethyl}-2-methyl-sulfanyl-nicotinamide]
- μ-Opioid receptor, % inhibition [1 μM]: 97%
- Ki: 160 nM

Compound: COc1cccc(CC2(O)CCC(C(c3cccc(F)c3)N(C)C)CC2)c1 (stereo not drawn) [compound 156, 4-[dimethylamino-(3-fluoro-phenyl)-methyl]-1-(3-methoxy-benzyl)-cyclohexanol]
- inhibition at 1 µM [1]: 73%

Compound: CN(C)C(c1ccccc1)C1CCC(CCNC(=O)c2cccc(Cl)c2)CC1 (single isomer, unassigned) [compound 398, 3-chloro-N-{2-[4-(dimethylamino-phenyl-methyl)-cyclohexyl]-ethyl}-benzamide]
- μ-Opioid receptor, % inhibition [1 μM] (1 µM): 101%
- Ki: 7.4 nM

Compound: CN(C)C(CCc1ccccc1)C1CCC(NC(=O)c2cccc(Br)c2)CC1 (stereo not drawn) [compound 277, 3-bromo-N-[4-(1-dimethylamino-3-phenyl-propyl)-cyclohexyl]-benzamide]
- inhibition at 1 µM: 74%
- Ki: 74 nM

Compound: CN(C)C(c1ccc(Cl)cc1)C1CCC(O)(Cc2ccccc2)CC1 (stereo not drawn) [compound 159, 1-benzyl-4-[(4-chloro-phenyl)-dimethylamino-methyl]-cyclohexanol]
- inhibition at 1 µM [1]: 83%

Compound: CC(Oc1ccccc1)C(=O)NCC1CCC(C(c2ccccc2)N(C)C)CC1 (stereo not drawn) [compound 323, N-[4-(dimethylamino-phenyl-methyl)-cyclohexylmethyl]-2-phenoxy-propionamide]
- inhibition at 1 µM: 95%
- Ki: 15 nM

Compound: COc1ccccc1C(=O)NCC1CCC(C(c2cccc(F)c2)N(C)C)CC1 (stereo not drawn) [compound 368, N-{4-[dimethylamino-(3-fluoro-phenyl)-methyl]-cyclohexylmethyl}-2-methoxy-benzamide]
- inhibition at 1 µM: 84%
- Ki: 34 nM
